Measurements taken from patent US12679878B2, “CRF2 receptor agonists and their use in therapy” (SANOFI, priority 2020, dated 2026).
Starred links: 1 amine or outer side, 2 acyl side, 3 side chain; linkers in the order of their positions; H or OH if unused. Non-standard residues stand in square brackets, D forms with d. Residues, ends and D or L forms follow the SMILES beside them. Groups on a side chain read outwards from the residue. *: point of attachment. C18 diacid = O=C(O)CCCCCCCCCCCCCCCCC(=O)*; γGlu = O=C(O)[C@H](CCC(=O)[*:2])N[*:1]; AEEA = NCCOCCOCC(=O)O

Tests used:
[1] = Pharmacokinetic properties in rats, i.v. or s.c. (Example 16); assay type: in vivo, SD rat; conditions: male, plasma, Rat; for AUC(0-t) / Cmax / half-life: Sprague-Dawley (SD)
Method: The pharmacokinetic properties of exemplary peptides SEQ ID NO: 35 and SEQ ID NO: 24 were assessed in mice and rats.
The test compound was administered in a suitable buffer system (PBS buffer solution at pH 7.4, or DPBS solution) at concentrations of 0.05, 0.1, 0.5 or 1 mg/ml depending on the dose, species and administration volume. Female C57BI/6 mice and male SD rate were dosed 0.1 mg/kg or 0.3 mg/kg intravenously or subcutaneously. The animals were sacrificed, and blood samples were collected after 0.08, 0.25, 0.5, 1, 2, 4, 8, 24, 32, and 48 hours post-intravenous administration and 0.25, 0.5, 1, 2, 4, 8, 24, 32, and 48 hours post-subcutaneous administration, respectively. Plasma samples were analysed after protein precipitation via liquid chromatography mass spectrometry (LC/MS). Pharmacokinetic parameters and half-life were calculated using Phoenix-WinNonlin 8.1 using a non-compartmental model and linear trapezoidal interpolation calculation.

CRF1R receptor = biological target: T1, CRF1R receptor (Homo sapiens, UniProt P34998); assay: cAMP activity at anti-target CRF1R, CRF1R-overexpression CHO cell line (Example 9); assay type: cell-based; conditions: CRF1R-overexpression CHO cell line
T1 construct: host or cells: CHO-K1 clone 2
T1 sequence (P34998 24-415): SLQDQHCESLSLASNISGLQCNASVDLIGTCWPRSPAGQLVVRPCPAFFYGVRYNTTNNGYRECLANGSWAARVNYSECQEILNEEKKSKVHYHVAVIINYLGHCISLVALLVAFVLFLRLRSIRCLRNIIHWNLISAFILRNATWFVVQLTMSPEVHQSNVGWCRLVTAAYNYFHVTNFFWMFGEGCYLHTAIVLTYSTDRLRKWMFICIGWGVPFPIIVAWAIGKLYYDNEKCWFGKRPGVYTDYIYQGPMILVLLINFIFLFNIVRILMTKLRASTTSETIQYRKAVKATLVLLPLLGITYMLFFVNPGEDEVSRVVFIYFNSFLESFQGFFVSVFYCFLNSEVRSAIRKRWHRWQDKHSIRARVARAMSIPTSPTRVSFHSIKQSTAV
In short: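 Using thawed CRF1R-overexpressing CHO cells at 2000 per well, compound is applied for 30 min at RT in HBSS/HEPES buffer with IBMX. Cellular cAMP content is determined via HTRF, and percent activity is calculated against 1000 nM UCN2 defined as 100%.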

rat CRF2R α receptor = assay: cAMP agonism at rat CRF2R α receptor in A7R5 rat aortic smooth muscle cells (Example 8); assay type: cell-based; conditions: cAMP HTRF, A7R5 rat aortic smooth muscle cell line, 0% HSA
In short: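 Potency (EC50) is the concentration reaching half-maximal activation, with responses scaled so that 1000 nM urocortin 2 equals 100%. Intracellular cAMP was quantified by homogeneous time-resolved fluorescence at 665/620 nm, 1 h after lysis-buffer reagents. Compound stimulation lasted 30 min at room temperature on 2000 IBMX-treated (2 mM) cells per well in HEPES-buffered HBSS.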

[2] = Solubility in buffer systems by UPLC-UV (Example 13); assay type: physicochemical; conditions: pH 7.4, Solubility in Buffer C [mg/ml]
In short: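 Quantitation used UV peak area from UPLC of the 1:10-diluted supernatant, set against a reference-compound standard curve with extinction coefficients adjusted for amino acid sequence.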

human CRF2α receptor = biological target: T2, human CRF2α receptor (Homo sapiens, UniProt Q13324); assay: cAMP agonism at human CRF2 α receptor in TeloHEAC cells (Example 7); assay type: cell-based; conditions: cAMP HTRF, TeloHEAC cells stably expressing human CRF2 α, 0% HSA; read-out: EC50 [nM], 0% HSA
T2 construct: expressed in transfected cells; host or cells: TeloHEAC
T2 sequence (Q13324 1-411): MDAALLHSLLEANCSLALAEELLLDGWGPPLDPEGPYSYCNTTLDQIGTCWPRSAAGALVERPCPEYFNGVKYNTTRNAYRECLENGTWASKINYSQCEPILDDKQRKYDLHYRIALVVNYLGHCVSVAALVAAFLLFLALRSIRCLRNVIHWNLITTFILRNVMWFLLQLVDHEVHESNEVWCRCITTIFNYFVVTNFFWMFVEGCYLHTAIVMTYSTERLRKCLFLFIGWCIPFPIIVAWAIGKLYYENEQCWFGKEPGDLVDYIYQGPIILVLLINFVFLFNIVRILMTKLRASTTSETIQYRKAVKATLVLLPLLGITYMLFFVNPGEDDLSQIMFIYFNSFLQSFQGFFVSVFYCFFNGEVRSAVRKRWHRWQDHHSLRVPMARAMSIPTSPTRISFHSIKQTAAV
In short: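 Thawed frozen stably transfected cells in HBSS/20 mM HEPES (0% or 0.1% HSA) plus 2 mM IBMX were exposed to compound at 2000 cells/well for 30 min at room temperature. Intracellular cAMP was read by HTRF (665/620 nm ratio) after 1 h lysis; EC50 was derived with 1000 nM urocortin 2 set as 100%.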

`CC[C@H](C)[C@H](N)C(=O)N[C@H](C(=O)N[C@@H](CC(C)C)C(=O)N[C@@H](CO)C(=O)N[C@@H](CC(C)C)C(=O)N[C@@H](CC(=O)O)C(=O)N[C@@H](C(=O)N1CCC[C@H]1C(=O)N[C@H](C(=O)N[C@@H](CCCCN)C(=O)N[C@@H](CC(C)C)C(=O)N[C@@H](CCCCNC(=O)COCCOCCNC(=O)COCCOCCNC(=O)CC[C@H](NC(=O)CCCCCCCCCCCCCCCCC(=O)O)C(=O)O)C(=O)N[C@@H](CCC(N)=O)C(=O)N[C@@H](CCCCN)C(=O)N[C@@H](CC(C)C)C(=O)N[C@@H](CC(C)C)C(=O)N[C@@H](CCCCN)C(=O)N[C@@H](CCC(N)=O)C(=O)N[C@@H](CCC(=O)O)C(=O)N[C@@H](CCCNC(=N)N)C(=O)N[C@@H](CCC(N)=O)C(=O)N[C@@H](CCCNC(=N)N)C(=O)N[C@@H](CCCCN)C(=O)N[C@@H](CCC(=O)O)C(=O)N[C@@H](CCCNC(=N)N)C(=O)N[C@@H](CCC(=O)O)C(=O)N[C@@H](CCC(N)=O)C(=O)N[C@@H](C)C(=O)N[C@@H](CCC(=O)O)C(=O)N[C@@H](CCCCN)C(=O)N[C@@H](CC(N)=O)C(=O)N[C@@H](CCCCN)C(=O)N[C@@H](CCCNC(=N)N)C(=O)N[C@H](C(=O)N[C@@H](CC(C)C)C(=O)N[C@@H](CCC(=O)O)C(=O)N[C@@H](CCCNC(=N)N)C(=O)N[C@H](C(N)=O)C(C)C)[C@@H](C)CC)[C@@H](C)O)C(C)C)C(C)C` [compound 24] (H-IVLSLD[dV]PTKLK([AEEA-AEEA-γGlu-C18 diacid])QKLLKQERQRKEREQAEKNKRILERV-NH2; N-terminus assumed) gave a clearance ([1]; SD, iv, 0.1 mg/kg i.v., read-out: CI (converted)) of 0.43 mL/min/kg, a bioavailability ([1]; SD, sc, 0.3 mg/kg s.c.) of 24% and an AUC(0-t) ([1]; iv, 0.1 mg/kg i.v.) of 3790 ng·h/mL. For the same compound, the Cmax ([1]; iv, 0.1 mg/kg i.v.) was 1480 ng/mL, the half-life ([1]; iv, 0.1 mg/kg i.v.) was 4.81 h and the AUC(0-t) ([1]; sc, 0.3 mg/kg s.c.) was 2610 ng·h/mL. For the same compound, the Cmax ([1]; sc, 0.3 mg/kg s.c.) was 171 ng/mL, the half-life ([1]; sc, 0.3 mg/kg s.c.) was 5.51 h and the EC50 (CRF1R receptor; 0% HSA) was greater than 1000 nM. The Emax (CRF1R receptor; read-out: Emax (%)) was 1.48%, the EC50 (rat CRF2R α receptor) was 4.94 nM and the solubility at 1 h [2] was greater than 10.1 mg/mL. The EC50 (human CRF2α receptor) was 6.95 nM.
